Test results: PMC5161551 (Nature chemical biology, 2016)

What was measured:
[1] = system: complement component C3, lactoferrin, and aquaporin 5; experiment: Uterine expression of E2-regulated genes; type: in vivo, mouse; conditions: ovariectomized mice, 4 days
IL-6 = experiment: TNFα-induced IL-6 secretion in MCF-7 cells; type: cell-based, human; conditions: MCF-7, 10 ng/ml TNFα, ligand 10 μM, 24 hr
[2] = system: uterus of ovariectomized mice; experiment: Mouse uterotrophic assay; type: in vivo; conditions: 240 μg in combination with E2 (10 ng), sc, 4 days
ERα = target: T1, ERα (Mus musculus, UniProt P19785); experiment: ERα+ cells in mouse uterus; type: in vivo; conditions: mouse uterine tissue after the uterotrophic assay
T1 sequence (P19785 1-599): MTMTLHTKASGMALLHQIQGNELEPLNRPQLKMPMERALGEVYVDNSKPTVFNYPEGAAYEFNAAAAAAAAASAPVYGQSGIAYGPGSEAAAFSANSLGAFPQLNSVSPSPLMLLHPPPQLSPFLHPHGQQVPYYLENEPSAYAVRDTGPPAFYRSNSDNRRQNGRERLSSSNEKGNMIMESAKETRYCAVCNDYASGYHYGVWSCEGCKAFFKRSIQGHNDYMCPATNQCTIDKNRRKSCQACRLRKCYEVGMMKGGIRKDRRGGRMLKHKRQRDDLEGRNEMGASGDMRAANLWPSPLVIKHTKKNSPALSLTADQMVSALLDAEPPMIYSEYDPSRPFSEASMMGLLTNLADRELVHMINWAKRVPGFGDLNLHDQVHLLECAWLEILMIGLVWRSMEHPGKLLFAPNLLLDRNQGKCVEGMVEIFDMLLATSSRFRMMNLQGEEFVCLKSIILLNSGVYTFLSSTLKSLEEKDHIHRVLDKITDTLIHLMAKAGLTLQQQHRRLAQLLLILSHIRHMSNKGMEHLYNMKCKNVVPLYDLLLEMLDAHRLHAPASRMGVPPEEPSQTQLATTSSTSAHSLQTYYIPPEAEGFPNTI

C[C@]12CC[C@@H]3c4ccc(O)cc4C[C@@H](CCCCCCCCC[S+]([O-])CCCC(F)(F)C(F)(F)F)[C@H]3[C@@H]1CC[C@@H]2O (some centres unmarked) [fulvestrant]
effect on E2-stimulated expression of genes in uterus ([1]; 240 μg in combination with E2 (10 ng)): markedly reduced the E2-stimulated expression levels of these genes
expression of E2-induced genes in uterus (compound alone) ([1]; 240 μg): failed to increase the expression of E2-induced genes
inhibition of TNFα-induced IL-6 secretion (IL-6): did not inhibit IL-6 secretion
effect on E2-stimulated uterine growth [2]: significantly reduced the E2-stimulated uterine growth
ERα expression in uterus (ERα+ cells) (ERα): robustly inhibited ERα expression
